PMC6470795 (Molecules, 2019)
Read-outs that look alike come from different tables or passages of the source.

Key:
[1] = system: SJSA1 (human osteosarcoma cells); assay: MTT antiproliferative assay, SJSA1 cells; assay type: cell-based; conditions: SJSA-1, SJSA1 cells, MTT, 48 h, read-out: IC50 SJSA1
Description: (§3) The cell lines, 97H (human liver cancer cell), Pc9 (human non-small cell lung cancer), HELA (human epithelial cervical cancer cell line), SJSA1 (human osteosarcoma cells), LO2 (human normal liver cells), and HLF (human embryonic lung fibroblast), used in this study were purchased from the Guangzhou ginny ou Biotechnology Co. Ltd. (Guangzhou, China). Cell lines were cultivated in Dulbecco’s Modified Eagle Medium (DMEM) containing 10% (v/v) heat-inactivated fetal bovine serum (FBS), 100 units/mL penicillin, and 100 μg/mL streptomycin.
(§4) For the cytotoxicity assay, the cells grown in the logarithmic phase were seeded into 96-well plates (5 × 10^3 cells/well) for 24 h, and then exposed to different concentrations of the test compounds for 48 h. After the attached cells had been incubated with 5 mg/mL MTT (Sigma, St. Louis, MO, USA) for another 4 h, the suspension was discarded and subsequently the dark blue crystals (formazan) were solubilized in dimethyl sulfoxide (DMSO). Then, the absorbance was measured at 570 nm using a multifunction microplate reader (Molecular Devices, Flex Station 3) (Thermo Fisher Scientific, San Jose, CA, USA), and each experiment was performed at least in triplicate.

[2] = system: hepatic carcinoma 97H cells; assay: Anti-cell-migration study; assay type: cell-based, human; conditions: 36 h
Protocol: 97H cells were plated in a 6-well culture dish at 5 × 10^4 cells/dish and grown for 24 h, and the non-migrated cells were scraped off the upper surface of the membrane with a 10 μL pipette. The medium was then replaced with 10% serum DMEM medium and treated with compound 31e at the indicated concentrations for another 36 h. After washing with phosphate buffer solution (PBS), the cell images were immediately detected by a Zeiss LSM 570 laser scanning confocal microscope (Carl Zeiss, Jena, Germany).
Figure 4 Effect of 31e on the migration of hepatic carcinoma 97H cells. Hepatic carcinoma 97H cells (50 × 10^4 cells) suspended in free serum Dulbecco’s Modified Eagle Medium (DMEM) containing 31e for 36 h were photographed under a phase contrast microscopy (magnification: 4 × objective). All results were expressed as the mean ± SD of at least three independent experiments.

[3] = system: Hela (human epithelial cervical cancer cells); assay: MTT antiproliferative assay, Hela cells; assay type: cell-based; conditions: Hela cells, MTT, 48 h, read-out: IC50 Hela
Description: as §3, §4

[4] = system: hepatic carcinoma 97H cells; assay: MTT antiproliferative assay, 97H cells; assay type: cell-based, human; conditions: Homo sapiens, 97H cells, MTT, 48 h
Description: as §3, §4

[5] = system: LO2 (human normal liver cells); assay: MTT assay, LO2 normal cells; assay type: cell-based; conditions: LO2 normal cells, MTT, 48 h, read-out: IC50 LO2
Description: as §3, §4

[6] = system: Akt phosphorylation; assay: Western blot, phosphorylation of Akt in 97H cells; assay type: cell-based, human
Protocol: (§1) 97H cells seeded in 60-mm dishes at a density of 5 × 10^5 cells/well were incubated with or without compound 31e at the indicated concentrations for 4 h. After incubation, the cells were washed twice with ice-cold PBS, and then lysed in RIPA lysis buffer (Radio Immunoprecipitation Assay) containing 150 mM NaCl, 50 mM Tris (pH 7.4), 1% (w/v) sodium deoxycholate, 1% (v/v) Triton X-100, 0.1% (w/v) SDS, and 1 mM EDTA (ethylenediaminetetraacetic acid) (Beyotime, Shanghai, China). The lysates were incubated at 0 °C for 30 min, and vortexed every 10 min intermittently, then the total proteins were harvested by centrifuging at 12,500 g for 15 min. The protein concentrations were determined by a BCA (bicinchoninic acid) Protein Assay Kit (Thermo Fisher Scientific, Rockford, IL, USA), and then the protein extracts were reconstituted in loading buffer containing 62 mM Tris-HCl, 2% SDS (sodium dodecyl sulfate), 10% glycerol, and 5% β-mercaptoethanol (Beyotime, Shanghai, China), and boiled at 100 °C for 3 min. An equal amount of the proteins (40 μg) was separated by 8%–12% sodium dodecyl sulphate-polyacrylamide gel electrophoresis (SDS-PAGE) and were transferred to nitrocellulose membranes (Amersham Biosciences, Little Chalfont, Buckinghamshire, UK). After blocking with 5% non-fat dried milk in TBS containing 1% Tween-20 for 90 min at room temperature, the membranes were incubated overnight with specific primary antibodies (Abcam, London, England) at 4 °C. After three washes in TBST, the membranes were incubated with the appropriate HRP-conjugated (Horseradish Peroxidase-conjugated) secondary antibodies at room temperature for 2 h. The blots were developed with enhanced chemiluminescence (Pierce, Rockford, IL, USA) and detected by an LAS4000 imager (GE Healthcare, Waukesha, WI, USA).
(§2) Figure 5 Compound 31e inhibits c-Met phosphorylation and downstream signaling in cancer cell lines. Cells treated with compound 31e for 1 h or 2 h were then lysed and subjected to Western blot analysis.

[7] = system: c-Met phosphorylation; assay: Western blot, phosphorylation of c-Met in 97H cells; assay type: cell-based, human
Protocol: as §1, §2

[8] = system: hepatic carcinoma 97H cells; assay: Cell cycle analysis by flow cytometry (PI staining); assay type: cell-based, human
Protocol: 97H cells were seeded in 6-well plates (3 × 10^5 cells/well) and incubated in the presence or absence of compound 31e at the indicated concentrations for 24 h. Then, cells were harvested by centrifugation and fixed in 70% ice-cold ethanol overnight. The ethanol was removed the next day, and then the cells were resuspended in the ice-cold PBS and treated with RNAse A (Keygen Biotech, Nanjing, China) at 37 °C for 30 min, followed by incubation with the DNA staining solution propidium iodide (PI) (Keygen Biotech, Nanjing, China) at 4 °C for 30 min. About 10,000 events were detected by flow cytometry (Epics XL, Beckman Coulter, Fullerton, CA, USA) at 488 nm. The data regarding the number of cells in different phases of the cell cycle were analyzed by EXPO32 ADC analysis software (Beckman Coulter, Fullerton, CA, USA).
Figure 3 Effect of 31e on cell cycle progression. (A) 97H cells (3 × 10^5 cells/sample) were treated with increasing concentrations of 31e for 24 h, cells were harvested, fixed with 70% ethanol, and stained with propidium iodide (PI). The cellular DNA content was then determined by flow cytometry analysis. (B) Quantitative analysis of the percentage of cells in each cell cycle phase was analyzed by EXPO32 ADC analysis software.

[9] = system: HLF (human embryonic lung fibroblast cells); assay: MTT assay, HLF normal cells; assay type: cell-based; conditions: HLF normal cells, MTT, 48 h, read-out: IC50 HLF
Description: as §3, §4

[10] = system: Pc9 (human non-small cell lung cancer cells); assay: MTT antiproliferative assay, Pc9 cells; assay type: cell-based; conditions: PC-9, Pc9 cells, MTT, 48 h, read-out: IC50 Pc9
Description: as §3, §4

[11] = target: T1, c-Met enzyme (Homo sapiens, UniProt P08581); assay: Kinase inhibition assay; assay type: biochemical
T1 construct: purchased Invitrogen
Protocol: The c-Met enzymes and the Z’-LYTE Kinase Kit were purchased from Invitrogen. The tested compounds were used in concentrations of 0.001 to 10 mM. Briefly, 1 μL of an inhibitor or 5% DMSO, 2 μL of enzyme, and 2 μL of substrate/ATP mix were added to a 384-well low volume plate L and incubated at room temperature for 60 min. Then, 5 μL of ADP-Glo™ Reagent was added, and the mixture was incubated at room temperature for 40 min. Finally, 10 μL of Kinase Detection Reagent was added, and the mixture was incubated at room temperature for 30 min. The plate was measured on a multifunction microplate reader (Molecular Devices, Flex Station 3), and the luminescence was recorded (integration time 0.5–1 s). Curve fitting and data presentations were performed using Graph Pad Prism version 5.0 (GraphPad Inc., La Jolla, CA, USA). Every experiment was repeated at least three times.

[12] = same concentration, 2 h versus 1 h

T1 sequence (P08581 25-1390): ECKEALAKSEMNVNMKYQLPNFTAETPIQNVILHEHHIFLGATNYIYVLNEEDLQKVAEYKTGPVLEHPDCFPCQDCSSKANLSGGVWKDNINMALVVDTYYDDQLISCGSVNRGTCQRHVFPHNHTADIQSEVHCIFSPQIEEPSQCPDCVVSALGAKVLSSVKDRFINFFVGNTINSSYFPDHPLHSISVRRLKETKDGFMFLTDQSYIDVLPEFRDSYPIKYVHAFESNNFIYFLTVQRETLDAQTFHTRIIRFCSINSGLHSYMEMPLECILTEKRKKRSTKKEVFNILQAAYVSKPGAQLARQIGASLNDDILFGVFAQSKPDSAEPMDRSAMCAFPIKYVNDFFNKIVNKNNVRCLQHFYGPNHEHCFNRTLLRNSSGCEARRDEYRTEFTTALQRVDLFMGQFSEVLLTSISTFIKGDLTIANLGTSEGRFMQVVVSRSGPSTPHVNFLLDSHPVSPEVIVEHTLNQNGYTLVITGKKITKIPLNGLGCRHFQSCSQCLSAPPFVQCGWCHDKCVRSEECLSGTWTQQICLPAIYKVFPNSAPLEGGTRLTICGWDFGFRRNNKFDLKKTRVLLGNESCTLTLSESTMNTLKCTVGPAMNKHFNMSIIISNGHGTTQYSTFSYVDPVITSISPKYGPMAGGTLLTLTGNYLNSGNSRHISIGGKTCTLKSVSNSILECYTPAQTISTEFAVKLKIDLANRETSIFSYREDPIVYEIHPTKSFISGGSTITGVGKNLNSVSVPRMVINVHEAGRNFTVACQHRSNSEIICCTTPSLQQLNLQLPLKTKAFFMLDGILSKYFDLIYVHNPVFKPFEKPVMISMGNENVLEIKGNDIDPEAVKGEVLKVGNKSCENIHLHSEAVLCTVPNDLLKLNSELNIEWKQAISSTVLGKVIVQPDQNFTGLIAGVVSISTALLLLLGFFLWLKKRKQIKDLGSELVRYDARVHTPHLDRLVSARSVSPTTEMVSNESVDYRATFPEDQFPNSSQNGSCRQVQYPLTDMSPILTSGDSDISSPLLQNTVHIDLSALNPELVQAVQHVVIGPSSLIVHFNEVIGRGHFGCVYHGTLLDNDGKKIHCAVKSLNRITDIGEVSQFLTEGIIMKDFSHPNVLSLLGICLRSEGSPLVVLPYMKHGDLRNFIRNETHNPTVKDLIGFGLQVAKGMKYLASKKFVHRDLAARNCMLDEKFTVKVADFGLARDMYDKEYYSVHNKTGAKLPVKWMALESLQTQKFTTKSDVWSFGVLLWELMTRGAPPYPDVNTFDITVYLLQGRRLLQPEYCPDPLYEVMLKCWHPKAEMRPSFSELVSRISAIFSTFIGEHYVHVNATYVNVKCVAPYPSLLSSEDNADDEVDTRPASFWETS

- IC50 [1]: > 50 µM
- IC50 [3]: > 50 µM
- IC50 ([4]; read-out: IC50 of Against 97H cells): 0.026 µM
- IC50 ([4]; read-out: IC50 value, 97H cells): 0.026 µM
- melting point: 98.2 to 99.9 °C
- IC50 [10]: 42.9 ± 0.13 µM
- IC50 [11]: 0.032 ± 0.06 µM
SMILES: CC(c1cccc(-c2ncc(OCC3CCN(C)CC3)cn2)c1)n1cc(-c2cccc(C#N)c2)cnc1=O (stereo not drawn) [Compound 31e, 5-(3-cyanophenyl)-1-(1-(3-(5-((1-methylpiperidin-4-yl)methoxy)pyrimidin-2-yl)phenyl)ethyl)pyrimidin-2(1H)-one]
- inhibition of migration ([2]; 10 nM): moderate inhibition of migration
- inhibition of migration ([2]; 50 nM): significantly suppressed
- inhibition of migration ([2]; 100 nM): completely suppressed
- IC50 [5]: > 50 µM
- phosphorylation of Akt ([6]; 100 nM, 1 h): completely inhibited
- phosphorylation level of Akt ([6]; 10 or 50 nM, 1 h): suppressed in a dose-dependent manner
- inhibition of Akt phosphorylation [6, 12]: more obvious
- phosphorylation of c-Met ([7]; 100 nM, 1 h): completely inhibited
- phosphorylation level of c-Met ([7]; 10 or 50 nM, 1 h): suppressed in a dose-dependent manner
- inhibition of c-Met phosphorylation [7, 12]: more obvious
- population of cells in the G1 phase ([8]; 10 nM, 24 h (vehicle DMSO 70.42%)): 83.84%
- population of cells in the G1 phase ([8]; 100 nM, 24 h): 90.88%
- population of cells in the G2/M phase ([8]; 100 nM, 24 h): 5.78%
- IC50 [9]: > 50 µM
